Laboratory results as given in ChEMBL document CHEMBL1201862, “PubChem BioAssay data set” (2004).
Calls of active or inactive are those of the source. Rule as the data show it: actives have a measured IC50 and inactives only a lower limit.

Target: Envelope glycoprotein gp160 (Human immunodeficiency virus 1, UniProt Q6QLK5)
Test: inhibitors of HIV fusion peptide binding, primary screen, biochemical, uHTS, fluorescence dequenching (AID 1986)

Envelope glycoprotein gp160, sequence (Q6QLK5 whole entry, the tested form may be a part): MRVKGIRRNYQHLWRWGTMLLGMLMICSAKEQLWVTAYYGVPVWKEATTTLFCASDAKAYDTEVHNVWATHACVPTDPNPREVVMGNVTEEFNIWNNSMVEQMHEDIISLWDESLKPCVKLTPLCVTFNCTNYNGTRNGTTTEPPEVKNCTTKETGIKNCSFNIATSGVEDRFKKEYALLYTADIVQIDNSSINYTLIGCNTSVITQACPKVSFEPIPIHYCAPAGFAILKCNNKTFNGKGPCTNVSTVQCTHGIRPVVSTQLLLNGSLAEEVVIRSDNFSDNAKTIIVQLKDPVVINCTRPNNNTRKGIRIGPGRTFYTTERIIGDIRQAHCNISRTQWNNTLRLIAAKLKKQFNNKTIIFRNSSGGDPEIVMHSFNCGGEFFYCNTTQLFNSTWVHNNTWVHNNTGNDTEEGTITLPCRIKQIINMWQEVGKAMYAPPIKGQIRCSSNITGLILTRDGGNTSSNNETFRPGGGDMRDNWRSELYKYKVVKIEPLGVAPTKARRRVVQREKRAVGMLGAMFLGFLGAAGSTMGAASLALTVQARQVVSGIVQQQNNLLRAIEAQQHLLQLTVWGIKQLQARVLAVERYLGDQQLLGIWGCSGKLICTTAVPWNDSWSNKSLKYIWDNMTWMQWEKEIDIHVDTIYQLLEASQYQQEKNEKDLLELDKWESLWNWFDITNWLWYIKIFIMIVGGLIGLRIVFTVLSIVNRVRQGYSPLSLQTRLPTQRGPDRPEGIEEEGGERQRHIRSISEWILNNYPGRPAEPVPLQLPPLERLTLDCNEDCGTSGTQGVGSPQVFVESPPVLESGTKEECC

| Structure (SMILES) | IC50 |
| --- | --- |
| O=C(O)c1cc(N2N=C(C(F)(F)F)/C(=C/C=C/c3ccco3)C2=O)ccc1Cl | 8.25 µM (active) |
| CCN1C(=O)/C(=C\c2ccc(-c3ccc([N+](=O)[O-])cc3OC)o2)S/C1=N\c1cccc(C(=O)O)c1 | 29.4 µM (active) |
